Where “and” joins values, the source holds several entries; their conditions need not be identical. Equal values may be shown once. Read-outs that look alike come from different tables or passages of the source.
What was measured:
Experiment in all cases: cell-based
[1] = biological target: T1, hNav1.4 (Homo sapiens, UniProt P35499)
[2] = biological target: T1, hNav1.4; details: ratio of IonWorks Quattro IC50 values
[3] = biological target: hNav1.7 (Homo sapiens, UniProt Q15858); type: cell-based
Chain of hNav1.7 (Q15858 whole entry): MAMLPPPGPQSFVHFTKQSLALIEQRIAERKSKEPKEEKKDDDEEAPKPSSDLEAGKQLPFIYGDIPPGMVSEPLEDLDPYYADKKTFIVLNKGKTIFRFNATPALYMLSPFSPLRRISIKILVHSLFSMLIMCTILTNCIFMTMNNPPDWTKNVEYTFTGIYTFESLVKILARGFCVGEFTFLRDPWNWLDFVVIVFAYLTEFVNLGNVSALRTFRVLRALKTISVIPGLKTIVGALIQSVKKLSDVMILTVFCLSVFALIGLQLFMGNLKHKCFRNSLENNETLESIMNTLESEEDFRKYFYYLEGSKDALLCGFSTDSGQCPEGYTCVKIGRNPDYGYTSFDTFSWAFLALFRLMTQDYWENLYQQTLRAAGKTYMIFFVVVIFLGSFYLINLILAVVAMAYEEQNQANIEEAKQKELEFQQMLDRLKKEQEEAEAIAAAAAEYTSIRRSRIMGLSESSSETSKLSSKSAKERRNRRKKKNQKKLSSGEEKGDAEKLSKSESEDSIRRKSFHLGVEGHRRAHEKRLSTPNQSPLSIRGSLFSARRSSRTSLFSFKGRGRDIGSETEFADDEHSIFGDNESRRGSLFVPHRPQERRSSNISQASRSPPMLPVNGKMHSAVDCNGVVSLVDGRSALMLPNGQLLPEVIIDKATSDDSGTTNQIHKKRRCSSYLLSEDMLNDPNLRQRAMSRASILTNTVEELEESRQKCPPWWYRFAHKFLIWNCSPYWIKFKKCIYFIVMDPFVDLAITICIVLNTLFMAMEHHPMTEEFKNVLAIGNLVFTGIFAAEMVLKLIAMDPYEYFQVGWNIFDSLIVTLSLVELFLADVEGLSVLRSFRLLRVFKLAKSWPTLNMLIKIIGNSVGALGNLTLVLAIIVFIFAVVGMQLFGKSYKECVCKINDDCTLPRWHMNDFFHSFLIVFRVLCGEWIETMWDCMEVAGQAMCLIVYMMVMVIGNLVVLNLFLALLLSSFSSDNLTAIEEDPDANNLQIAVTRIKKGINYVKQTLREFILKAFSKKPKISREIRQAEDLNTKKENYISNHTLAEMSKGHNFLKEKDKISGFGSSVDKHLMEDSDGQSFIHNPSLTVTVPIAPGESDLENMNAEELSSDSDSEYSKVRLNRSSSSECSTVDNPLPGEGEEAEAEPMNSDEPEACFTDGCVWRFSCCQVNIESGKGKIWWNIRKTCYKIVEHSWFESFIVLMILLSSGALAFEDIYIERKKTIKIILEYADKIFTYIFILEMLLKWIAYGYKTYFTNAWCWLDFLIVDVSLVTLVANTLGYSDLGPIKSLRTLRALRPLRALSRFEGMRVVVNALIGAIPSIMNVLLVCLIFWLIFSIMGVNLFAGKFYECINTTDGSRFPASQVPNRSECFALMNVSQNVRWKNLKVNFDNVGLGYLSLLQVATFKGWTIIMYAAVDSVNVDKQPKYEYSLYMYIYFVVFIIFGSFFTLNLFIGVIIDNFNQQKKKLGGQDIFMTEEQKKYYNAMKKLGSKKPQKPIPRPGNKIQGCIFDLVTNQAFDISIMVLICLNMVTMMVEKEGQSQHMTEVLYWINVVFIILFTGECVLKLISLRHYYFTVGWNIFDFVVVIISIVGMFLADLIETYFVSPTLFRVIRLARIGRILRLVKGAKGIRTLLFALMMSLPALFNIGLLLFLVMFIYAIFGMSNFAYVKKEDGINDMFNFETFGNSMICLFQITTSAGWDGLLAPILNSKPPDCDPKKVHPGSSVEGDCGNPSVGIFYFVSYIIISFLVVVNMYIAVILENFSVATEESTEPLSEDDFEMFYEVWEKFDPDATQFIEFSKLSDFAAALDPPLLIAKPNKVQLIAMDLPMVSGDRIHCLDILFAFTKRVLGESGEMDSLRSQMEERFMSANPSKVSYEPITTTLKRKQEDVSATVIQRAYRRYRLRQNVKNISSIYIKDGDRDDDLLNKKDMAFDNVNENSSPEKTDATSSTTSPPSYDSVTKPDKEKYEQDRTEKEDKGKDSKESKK

T1 sequence (P35499 whole entry): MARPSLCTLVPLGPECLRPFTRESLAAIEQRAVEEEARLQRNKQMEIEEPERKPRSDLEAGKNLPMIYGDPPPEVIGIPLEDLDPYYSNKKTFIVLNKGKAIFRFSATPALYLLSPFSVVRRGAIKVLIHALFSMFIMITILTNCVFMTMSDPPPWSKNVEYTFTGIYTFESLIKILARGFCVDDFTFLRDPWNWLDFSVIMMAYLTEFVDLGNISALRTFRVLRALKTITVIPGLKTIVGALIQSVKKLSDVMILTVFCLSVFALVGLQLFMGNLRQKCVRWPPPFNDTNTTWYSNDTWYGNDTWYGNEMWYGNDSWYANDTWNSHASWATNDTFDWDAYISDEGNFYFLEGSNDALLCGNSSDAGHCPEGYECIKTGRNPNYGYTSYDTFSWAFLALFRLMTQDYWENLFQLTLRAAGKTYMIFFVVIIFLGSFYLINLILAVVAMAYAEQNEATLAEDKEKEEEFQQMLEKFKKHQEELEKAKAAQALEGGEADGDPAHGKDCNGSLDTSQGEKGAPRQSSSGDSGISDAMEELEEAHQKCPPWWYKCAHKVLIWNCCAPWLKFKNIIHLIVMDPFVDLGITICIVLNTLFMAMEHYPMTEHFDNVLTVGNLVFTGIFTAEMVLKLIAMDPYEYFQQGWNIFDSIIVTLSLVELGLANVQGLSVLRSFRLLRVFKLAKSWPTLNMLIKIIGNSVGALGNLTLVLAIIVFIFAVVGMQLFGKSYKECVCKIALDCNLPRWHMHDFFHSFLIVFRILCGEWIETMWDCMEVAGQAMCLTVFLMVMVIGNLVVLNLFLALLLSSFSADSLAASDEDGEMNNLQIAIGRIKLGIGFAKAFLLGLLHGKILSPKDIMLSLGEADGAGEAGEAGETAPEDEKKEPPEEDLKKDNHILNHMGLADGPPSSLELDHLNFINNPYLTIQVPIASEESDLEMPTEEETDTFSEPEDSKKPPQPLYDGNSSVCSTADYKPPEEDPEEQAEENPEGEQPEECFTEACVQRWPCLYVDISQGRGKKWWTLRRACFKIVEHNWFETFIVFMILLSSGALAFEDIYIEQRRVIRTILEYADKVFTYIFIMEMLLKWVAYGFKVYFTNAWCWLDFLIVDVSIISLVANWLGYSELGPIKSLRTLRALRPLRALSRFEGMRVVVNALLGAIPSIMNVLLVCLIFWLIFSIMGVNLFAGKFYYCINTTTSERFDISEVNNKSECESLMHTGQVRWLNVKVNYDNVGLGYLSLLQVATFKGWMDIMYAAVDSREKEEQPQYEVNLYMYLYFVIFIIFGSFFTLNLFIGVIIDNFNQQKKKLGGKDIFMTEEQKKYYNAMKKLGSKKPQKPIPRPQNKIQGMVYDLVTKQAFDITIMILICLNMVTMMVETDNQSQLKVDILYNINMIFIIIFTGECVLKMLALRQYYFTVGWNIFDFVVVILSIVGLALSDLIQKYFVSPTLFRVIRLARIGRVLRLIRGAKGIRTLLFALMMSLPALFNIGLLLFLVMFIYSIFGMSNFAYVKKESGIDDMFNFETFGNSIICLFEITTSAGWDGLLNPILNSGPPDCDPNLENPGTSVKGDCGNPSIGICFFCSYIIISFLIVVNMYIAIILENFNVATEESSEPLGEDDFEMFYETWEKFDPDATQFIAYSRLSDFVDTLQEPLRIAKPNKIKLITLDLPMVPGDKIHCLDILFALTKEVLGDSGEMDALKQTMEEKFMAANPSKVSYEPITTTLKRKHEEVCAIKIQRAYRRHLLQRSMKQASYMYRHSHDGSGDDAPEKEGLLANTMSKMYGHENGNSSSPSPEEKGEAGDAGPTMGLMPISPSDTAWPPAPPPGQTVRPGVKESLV

Work on `CCCC[C@@H]1NC(=O)[C@H](Cc2c[nH]c3ccccc23)NC(=O)[C@H](CCCCN)NC(=O)[C@H](CCC(N)=O)NC(=O)[C@@H](NC(=O)[C@H](Cc2ccc(O)cc2)NC(=O)[C@@H](N)Cc2cn(CCCOCCOCCOCCOCCOCCOCCOCCOCCOCCOCCN)nn2)CSSC[C@@H]2NC(=O)[C@@H]3CSSC[C@@H](C(=O)N[C@@H](CCCNC(=N)N)C(=O)N[C@@H](CCCCN)C(=O)N[C@H](C(=O)N[C@H](C(N)=O)[C@@H](C)CC)[C@@H](C)CC)NC(=O)[C@H](Cc4c[nH]c5ccccc45)NC(=O)[C@H](CC(C)C)NC(=O)[C@H](CCCCN)NC(=O)[C@H](CSSC[C@H](NC(=O)[C@H]([C@@H](C)O)NC(=O)[C@H](Cc4c[nH]c5ccccc45)NC1=O)C(=O)N[C@@H](CC(=O)O)C(=O)N[C@@H](CO)C(=O)N[C@@H](CCCCN)C(=O)N[C@@H](CCCNC(=N)N)C(=O)N[C@@H](C)C(=O)N3)NC(=O)[C@H](CCCNC(=N)N)NC(=O)[C@H](CC(C)C)NC(=O)CNC(=O)[C@H](CCC(=O)O)NC2=O` [compound 247] yielded a Nav1.4/Nav1.7 ([1]; ratio of PX IC50 values) of 1 and a Nav1.4/Nav1.7 [2] of 2.

[1-Nal24]JzTx-V(1-29) [SEQ ID NO: 43] was tested, and the “hNav1.7 potency/activity compared with wild type JzTx-V” value [3] was “loses considerable activity against hNav1.7”.

Compound `C#CC[C@@H]1NC(=O)[C@@H]2CSSC[C@H](NC(=O)[C@H](Cc3ccc(O)cc3)NC(=O)[C@@H](N)CC#N)C(=O)N[C@@H](CCC(N)=O)C(=O)N[C@@H](CCCCN)C(=O)N[C@@H](Cc3c[nH]c4ccccc34)C(=O)N[C@@H](CCCC)C(=O)N[C@@H](Cc3c[nH]c4ccccc34)C(=O)N[C@@H]([C@@H](C)O)C(=O)N[C@H]3CSSC[C@H](NC(=O)[C@H](CCC(=O)O)NC(=O)[C@H](CC(C)C)NC(=O)CNC1=O)C(=O)N[C@@H](CCCCN)C(=O)N[C@@H](CC(C)C)C(=O)N[C@@H](Cc1c[nH]c4ccccc14)C(=O)N[C@H](C(=O)N[C@@H](CCCNC(=N)N)C(=O)N[C@@H](CCCCN)C(=O)N[C@H](C(=O)N[C@H](C(N)=O)[C@@H](C)CC)[C@@H](C)CC)CSSC[C@H](NC(=O)[C@H](C)NC(=O)[C@H](CCCNC(=N)N)NC(=O)[C@H](CCCCN)NC(=O)[C@H](CO)NC(=O)[C@H](CC(=O)O)NC3=O)C(=O)N2` [compound 396] has a Nav1.4/Nav1.7 ([1]; ratio of PX tonic IC50 values) of 98.

Compound `C#CC[C@H](N)C(=O)NCCCC[C@@H]1NC(=O)[C@H](CCCNC(=N)N)NC(=O)[C@H](CCCCN)NC(=O)[C@H](CO)NC(=O)[C@H](CC(=O)O)NC(=O)[C@@H]2CSSC[C@@H]3NC(=O)[C@H](CCC(=O)O)NC(=O)[C@H](CC(C)C)NC(=O)CNC(=O)[C@H](CCC(=O)O)NC(=O)[C@H](CSSC[C@H](NC(=O)[C@H](Cc4ccc(O)cc4)NC(=O)[C@@H](N)CCC)C(=O)N[C@@H](CCC(N)=O)C(=O)N[C@@H](CCCCN)C(=O)N[C@@H](Cc4c[nH]c5ccccc45)C(=O)N[C@@H](CCCC)C(=O)N[C@@H](Cc4c[nH]c5ccccc45)C(=O)N[C@@H]([C@@H](C)O)C(=O)N2)NC(=O)[C@H](CSSC[C@@H](C(=O)N[C@@H](CCCNC(=N)N)C(=O)N[C@@H](CCCCN)C(=O)N[C@@H](Cc2ccc(O)cc2)C(=O)N[C@H](C(N)=O)[C@@H](C)CC)NC(=O)[C@H](Cc2c[nH]c4ccccc24)NC(=O)[C@H](CC(C)C)NC(=O)[C@H](CCCCN)NC3=O)NC1=O` [compound 436] has an IC50 ([3]; PatchXpress, tonic block, read-out: PX hNav1.7 Tonic IC50) of 2.96 nM.

With `CC[C@H](NC(=O)[C@H](CCCCN)NC(=O)[C@H](CCCNC(=N)N)NC(=O)[C@@H]1CSSC[C@@H]2NC(=O)[C@H](C)NC(=O)[C@H](CCCNC(=N)N)NC(=O)[C@H](CCCCN)NC(=O)[C@H](CO)NC(=O)[C@H](CC(=O)O)NC(=O)[C@@H]3CSSC[C@H](NC(=O)[C@H](CCC(=O)O)NC(=O)[C@H](CC(C)C)NC(=O)CNC(=O)[C@H](CCC(=O)O)NC(=O)[C@H](CSSC[C@H](NC(=O)[C@@H](N)Cc4ccc(O)cc4)C(=O)N[C@@H](CCC(N)=O)C(=O)N[C@@H](CCCCN)C(=O)N[C@@H](Cc4c[nH]c5ccccc45)C(=O)N[C@@H](CCSC)C(=O)N[C@@H](Cc4c[nH]c5ccccc45)C(=O)N[C@@H]([C@@H](C)O)C(=O)N3)NC2=O)C(=O)N[C@@H](CCCCN)C(=O)N[C@@H](CC(C)C)C(=O)N[C@@H](Cc2c[nH]c3ccccc23)C(=O)N1)C(=O)N[C@H](C(N)=O)[C@@H](C)CC` [compound 130] the Nav1.4/Nav1.7 [2] was 29 and 24.

`CC[C@H](C)[C@H](NC(=O)[C@@H](NC(=O)[C@H](CCCCN)NC(=O)[C@H](CCCNC(=N)N)NC(=O)[C@@H]1CSSC[C@@H]2NC(=O)[C@H](C)NC(=O)[C@H](CCCNC(=N)N)NC(=O)[C@H](CCCCN)NC(=O)[C@H](CO)NC(=O)[C@H](CC(=O)O)NC(=O)[C@@H]3CSSC[C@H](NC(=O)[C@H](CCC(=O)O)NC(=O)[C@H](CC(C)C)NC(=O)CNC(=O)[C@H](CCC(=O)O)NC(=O)[C@H](CSSC[C@H](NC(=O)[C@@H](N)Cc4ccc(O)cc4)C(=O)N[C@@H](CCC(N)=O)C(=O)N[C@@H](CCCCN)C(=O)N[C@@H](Cc4c[nH]c5ccccc45)C(=O)N[C@@H](CCSC)C(=O)N[C@@H](Cc4c[nH]c5ccccc45)C(=O)N[C@@H]([C@@H](C)O)C(=O)N3)NC2=O)C(=O)N[C@@H](CCCCN)C(=O)N[C@@H](CC(C)C)C(=O)N[C@@H](Cc2c[nH]c3ccccc23)C(=O)N1)[C@@H](C)CC)C(N)=O` [SEQ ID NO: 63, [Glu20]JzTx-V(1-29)] showed an IC50 ([1]; read-out: IC50 against hNav1.4 in the PX assay format) of 1250 nM.

In the case of `C#CC[C@H](N)C(=O)NCCCC[C@@H]1NC(=O)[C@H](CCCNC(=N)N)NC(=O)[C@H](CCCCN)NC(=O)[C@H](CO)NC(=O)[C@H](CC(=O)O)NC(=O)[C@@H]2CSSC[C@@H]3NC(=O)[C@H](CCCNC(=N)N)NC(=O)[C@H](CC(C)C)NC(=O)CNC(=O)[C@H](CCC(=O)O)NC(=O)[C@H](CSSC[C@H](NC(=O)[C@H](Cc4ccc(O)cc4)NC(=O)[C@@H](N)CCC)C(=O)N[C@@H](CCC(N)=O)C(=O)N[C@@H](CCCCN)C(=O)N[C@@H](Cc4c[nH]c5ccccc45)C(=O)N[C@@H](CCCC)C(=O)N[C@@H](Cc4c[nH]c5ccccc45)C(=O)N[C@@H]([C@@H](C)O)C(=O)N2)NC(=O)[C@H](CSSC[C@@H](C(=O)N[C@@H](CCCNC(=N)N)C(=O)N[C@@H](CCCCN)C(=O)N[C@H](C(=O)N[C@H](C(N)=O)[C@@H](C)CC)[C@@H](C)CC)NC(=O)[C@H](Cc2c[nH]c4ccccc24)NC(=O)[C@H](CC(C)C)NC(=O)[C@H](CCCCN)NC3=O)NC1=O` [compound 431], the IC50 ([1]; PatchXpress, tonic block, read-out: PX hNav1.4 Tonic IC50) is reported as 20.5 nM and the Nav1.4/Nav1.7 ([1]; ratio of PX tonic IC50 values) is reported as 13.

`CCC[C@H](N)C(=O)N[C@@H](Cc1ccc(O)cc1)C(=O)N[C@H]1CSSC[C@@H]2NC(=O)[C@@H]3CSSC[C@@H](C(=O)N[C@@H](CCCNC(=N)N)C(=O)N[C@@H](CCCCN)C(=O)N[C@H](C(=O)N[C@H](C(N)=O)[C@@H](C)CC)[C@@H](C)CC)NC(=O)[C@H](Cc4c[nH]c5ccccc45)NC(=O)[C@H](CC(C)C)NC(=O)[C@H](CCCCN)NC(=O)[C@H](CSSC[C@H](NC(=O)[C@H]([C@@H](C)O)NC(=O)[C@H](Cc4c[nH]c5ccccc45)NC(=O)[C@H](CC(C)C)NC(=O)[C@H](Cc4c[nH]c5ccccc45)NC(=O)[C@H](CCCCN)NC(=O)[C@H](CCC(N)=O)NC1=O)C(=O)N[C@@H](CC(=O)O)C(=O)N[C@@H](CO)C(=O)N[C@@H](CCCCN)C(=O)N[C@@H](CCCNC(=N)N)C(=O)N[C@@H](CCCCNC(=O)[C@@H](N)Cc1cn(CCOCCOCCOCCOCCOCCOCCOCCOCCOCCOCCN)nn1)C(=O)N3)NC(=O)[C@H](CCCNC(=N)N)NC(=O)[C@H](CC(C)C)NC(=O)CNC(=O)[C@H](CCC(=O)O)NC2=O` [compound 446] gave a Nav1.4/Nav1.7 ([1]; ratio of PX IC50 values) of 11.

With `CCCC[C@@H]1NC(=O)[C@H](Cc2c[nH]c3ccccc23)NC(=O)[C@H](CCCCN)NC(=O)[C@H](CCC(N)=O)NC(=O)[C@@H](NC(=O)[C@@H](N)Cc2cn(CCCOCCOCCOCCOCCOCCOCCOCCOCCOCCOCCN)nn2)CSSC[C@@H]2NC(=O)[C@@H]3CSSC[C@@H](C(=O)N[C@@H](CCCNC(=N)N)C(=O)N[C@@H](CCCCN)C(=O)N[C@H](C(=O)N[C@H](C(N)=O)[C@@H](C)CC)[C@@H](C)CC)NC(=O)[C@H](Cc4c[nH]c5ccccc45)NC(=O)[C@H](CC(C)C)NC(=O)[C@H](CCCCN)NC(=O)[C@H](CSSC[C@H](NC(=O)[C@H]([C@@H](C)O)NC(=O)[C@H](Cc4c[nH]c5ccccc45)NC1=O)C(=O)N[C@@H](CC(=O)O)C(=O)N[C@@H](CO)C(=O)N[C@@H](CCCCN)C(=O)N[C@@H](CCCNC(=N)N)C(=O)N[C@@H](C)C(=O)N3)NC(=O)[C@H](CCCNC(=N)N)NC(=O)[C@H](CC(C)C)NC(=O)CNC(=O)[C@H](CCC(=O)O)NC2=O` [compound 248] the Nav1.4/Nav1.7 ([1]; ratio of PX IC50 values) was 15 and the Nav1.4/Nav1.7 [2] was 4 and 3.

In the case of `CCCC[C@@H]1NC(=O)[C@H](Cc2c[nH]c3ccccc23)NC(=O)[C@H](CCCCN)NC(=O)[C@H](CCC(N)=O)NC(=O)[C@@H](NC(=O)[C@@H](N)Cc2ccc(O)cc2)CSSC[C@@H]2NC(=O)[C@@H]3CSSC[C@@H](C(=O)N[C@@H](CCCNC(=N)N)C(=O)N[C@@H](CCCCN)C(=O)N[C@H](C(=O)N[C@@H](Cc4cn(CCCOCCOCCOCCOCCOCCOCCOCCOCCOCCOCCN)nn4)C(N)=O)[C@@H](C)CC)NC(=O)[C@H](Cc4c[nH]c5ccccc45)NC(=O)[C@H](CC(C)C)NC(=O)[C@H](CCCCN)NC(=O)[C@H](CSSC[C@H](NC(=O)[C@H]([C@@H](C)O)NC(=O)[C@H](Cc4c[nH]c5ccccc45)NC1=O)C(=O)N[C@@H](CC(=O)O)C(=O)N[C@@H](CO)C(=O)N[C@@H](CCCCN)C(=O)N[C@@H](CCCNC(=N)N)C(=O)N[C@@H](C)C(=O)N3)NC(=O)[C@H](CCCNC(=N)N)NC(=O)[C@H](CC(C)C)NC(=O)CNC(=O)[C@H](CCC(=O)O)NC2=O` [compound 270], the Nav1.4/Nav1.7 [2] is reported as 2.

`CC[C@@H]1NC(=O)[C@H](CC(C)C)NC(=O)CNC(=O)[C@H](CCC(=O)O)NC(=O)[C@@H]2CSSC[C@H](NC(=O)[C@@H](N)Cc3ccc(O)cc3)C(=O)N[C@@H](CCC(N)=O)C(=O)N[C@@H](CCCCN)C(=O)N[C@@H](Cc3c[nH]c4ccccc34)C(=O)N[C@@H](CCSC)C(=O)N[C@@H](Cc3c[nH]c4ccccc34)C(=O)N[C@@H]([C@@H](C)O)C(=O)N[C@H]3CSSC[C@H](NC1=O)C(=O)N[C@@H](CCCCN)C(=O)N[C@@H](CC(C)C)C(=O)N[C@@H](Cc1c[nH]c4ccccc14)C(=O)N[C@H](C(=O)N[C@@H](CCCNC(=N)N)C(=O)N[C@@H](CCCCN)C(=O)N[C@H](C(=O)N[C@H](C(N)=O)[C@@H](C)CC)[C@@H](C)CC)CSSC[C@H](NC(=O)[C@H](C)NC(=O)[C@H](CCCNC(=N)N)NC(=O)[C@H](CCCCN)NC(=O)[C@H](CO)NC(=O)[C@H](CC(=O)O)NC3=O)C(=O)N2` [compound 117] gave a Nav1.4/Nav1.7 [2] of 19.
